Test results taken from patent publication US20260176320A1, “MODULATORS OF G-PROTEIN COUPLED RECEPTORS” (priority 2018, published 2026).
Where two headings read alike, the source gives them in different places. Numbered stars: 1 amine (or outer) side, 2 acyl side, 3 side chain; on linkers, the order of the positions; unused ones are H or OH. Square brackets hold non-standard residues; d marks the D form. Side chains are listed from the residue outwards. Peptide text beside a SMILES is read from it. * marks the point of attachment. X9 = O=C([C@H](Cc1cc(O)no1)N[*:1])[*:2]; γGlu = O=C(O)[C@H](CCC(=O)[*:2])N[*:1]; Palmitoyl = CCCCCCCCCCCCCCCC(=O)*; X6 = O=C(CSCC(=O)*)NCCN1CCCCC1=O; Aib = CC(C)(N)C(=O)O

Legend:
GLP-1R = GLP-1R (Homo sapiens, UniProt P43220); test: HitHunter cAMP assay (GLP-1R); type: cell-based; conditions: cAMP; for Emax: read-out: (Emax) GLP-1R
Chain of GLP-1R (P43220 24-463): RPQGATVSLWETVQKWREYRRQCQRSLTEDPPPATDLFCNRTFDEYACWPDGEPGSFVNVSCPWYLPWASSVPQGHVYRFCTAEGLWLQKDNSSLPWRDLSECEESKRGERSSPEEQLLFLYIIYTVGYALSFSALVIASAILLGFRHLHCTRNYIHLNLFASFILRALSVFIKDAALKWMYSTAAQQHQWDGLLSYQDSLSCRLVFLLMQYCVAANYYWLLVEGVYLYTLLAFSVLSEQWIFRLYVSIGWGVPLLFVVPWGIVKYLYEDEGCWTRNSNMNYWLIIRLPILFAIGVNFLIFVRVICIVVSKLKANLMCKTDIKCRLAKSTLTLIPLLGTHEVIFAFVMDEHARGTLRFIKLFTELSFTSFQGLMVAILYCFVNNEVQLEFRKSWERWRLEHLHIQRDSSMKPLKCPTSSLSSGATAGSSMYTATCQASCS
Outline: (§1)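 cAMP accumulation read by luminescent HitHunter immunocompetition after 30 min room-temperature agonist stimulation. Agonists tested as 22-point twofold dilutions, in duplicate, on 10,000 cells/well in HBSS containing 625 μM IBMX, 10 mM HEPES and 0.2% BSA.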

GIP-R = target: T1, GIP-R (Homo sapiens, UniProt P48546); test: HitHunter cAMP assay (GIP-R); type: cell-based; conditions: cAMP; for Emax: read-out: (Emax) GIP-R
T1 sequence (P48546 22-466): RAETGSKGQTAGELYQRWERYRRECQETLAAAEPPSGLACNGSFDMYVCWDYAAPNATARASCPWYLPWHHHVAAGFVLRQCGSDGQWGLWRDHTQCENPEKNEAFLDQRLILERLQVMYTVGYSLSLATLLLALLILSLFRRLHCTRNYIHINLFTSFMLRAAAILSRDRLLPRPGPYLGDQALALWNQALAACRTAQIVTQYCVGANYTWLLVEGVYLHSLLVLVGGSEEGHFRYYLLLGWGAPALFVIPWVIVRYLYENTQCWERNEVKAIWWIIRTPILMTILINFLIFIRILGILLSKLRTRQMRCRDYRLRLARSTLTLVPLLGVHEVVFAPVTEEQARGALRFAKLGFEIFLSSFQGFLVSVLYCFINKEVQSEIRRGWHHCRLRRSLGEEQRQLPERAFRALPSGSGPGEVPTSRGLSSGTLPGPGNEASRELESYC
Outline: as §1

[1] = Table 3A, read-out: EC50 GLP-1R/nM
[2] = Table 3A, read-out: EC50 GIP-R/nM

SMILES: CC[C@H](C)[C@H](NC(=O)[C@H](CO)NC(=O)[C@H](Cc1ccc(O)cc1)NC(=O)[C@H](CC(=O)O)NC(=O)[C@H](CO)NC(=O)[C@@H](NC(=O)[C@H](Cc1ccccc1)NC(=O)[C@@H](NC(=O)CNC(=O)[C@H](CCC(=O)O)NC(=O)CSCC(=O)NCCN1C(=O)CCC1=O)[C@@H](C)O)[C@@H](C)O)C(=O)N[C@@H](Cc1ccc(O)cc1)C(=O)N[C@@H](CC(C)C)C(=O)N[C@@H](CC(=O)O)C(=O)N[C@@H](CCCCN)C(=O)N[C@@H](CCC(N)=O)C(=O)N[C@@H](C)C(=O)N[C@@H](C)C(=O)NC(C)(C)C(=O)N[C@@H](CCC(=O)O)C(=O)N[C@@H](Cc1ccccc1)C(=O)N[C@H](C(=O)N[C@@H](CC(N)=O)C(=O)N[C@@H](Cc1c[nH]c2ccccc12)C(=O)N[C@@H](CC(C)C)C(=O)N[C@@H](CC(C)C)C(=O)N[C@@H](C)C(=O)NCC(=O)NCC(=O)N1CCC[C@H]1C(=O)N[C@@H](CO)C(=O)N[C@@H](CO)C(=O)NCC(=O)N[C@@H](C)C(=O)N1CCC[C@H]1C(=O)N1CCC[C@H]1C(=O)N1CCC[C@H]1C(=O)N[C@@H](CO)C(=O)N[C@@H](CCCCN)C(N)=O)C(C)C [Compound 117]
- Emax (GLP-1R; Table 3): 92%
- EC50 (GLP-1R; Table 3, read-out: EC50 GLP-1R/nM): 10 to 100 nM
- Emax (GLP-1R; Table 3A): 92%
- EC50 (GLP-1R; [1]): 1 to 10 nM
- Emax (GIP-R; Table 3): 70%
- EC50 (GIP-R; Table 3, read-out: EC50 GIP-R/nM): 10 to 100 nM
- Emax (GIP-R; Table 3A): 70%
- EC50 (GIP-R; [2]): 10 to 100 nM

SMILES: CCCCCCCCCCCCCCCC(=O)N[C@@H](CCC(=O)NCCCC[C@H](NC(=O)[C@H](CO)NC(=O)[C@@H]1CCCN1C(=O)[C@@H]1CCCN1C(=O)[C@@H]1CCCN1C(=O)[C@H](C)NC(=O)CNC(=O)[C@H](CO)NC(=O)[C@H](CO)NC(=O)[C@@H]1CCCN1C(=O)CNC(=O)CNC(=O)[C@H](C)NC(=O)[C@H](CC(C)C)NC(=O)[C@H](CC(C)C)NC(=O)[C@H](Cc1c[nH]c2ccccc12)NC(=O)[C@H](CC(N)=O)NC(=O)[C@@H](NC(=O)[C@H](Cc1ccccc1)NC(=O)[C@H](CCC(=O)O)NC(=O)C(C)(C)NC(=O)[C@H](C)NC(=O)[C@H](C)NC(=O)[C@H](CCC(N)=O)NC(=O)[C@H](CCCCN)NC(=O)[C@H](CC(=O)O)NC(=O)[C@H](CC(C)C)NC(=O)[C@H](Cc1ccc(O)cc1)NC(=O)[C@@H](NC(=O)[C@H](CO)NC(=O)[C@H](Cc1ccc(O)cc1)NC(=O)[C@H](CC(=O)O)NC(=O)[C@H](CO)NC(=O)[C@@H](NC(=O)[C@H](Cc1ccccc1)NC(=O)[C@@H](NC(=O)CNC(=O)[C@H](CCC(=O)O)NC(=O)CSCC(=O)NCCN1C(=O)[C@H]2CCC[C@H]2C1=O)[C@@H](C)O)[C@@H](C)O)[C@@H](C)CC)C(C)C)C(N)=O)C(=O)O [Compound 103]
- EC50 (GLP-1R; EC50 GLP-1R/nM, Table 3): 10 to 100 nM
- EC50 (GLP-1R; EC50 GLP-1R/nM, Table 3A): 10 to 100 nM
- Emax (GLP-1R; Table 3): 95%
- Emax (GLP-1R; Table 3A): 95%
- EC50 (GIP-R; EC50 GIP-R/nM, Table 3): 1 to 10 nM
- EC50 (GIP-R; EC50 GIP-R/nM, Table 3A): 1 to 10 nM
- Emax (GIP-R; Table 3): 68%
- Emax (GIP-R; Table 3A): 68%

SMILES: CCCCCCCCCCCCCCCC(=O)N[C@@H](CCC(=O)NCCCC[C@H](NC(=O)[C@H](CO)NC(=O)[C@@H]1CCCN1C(=O)[C@@H]1CCCN1C(=O)[C@@H]1CCCN1C(=O)[C@H](C)NC(=O)CNC(=O)[C@H](CO)NC(=O)[C@H](CO)NC(=O)[C@@H]1CCCN1C(=O)CNC(=O)CNC(=O)[C@H](C)NC(=O)[C@H](CC(C)C)NC(=O)[C@H](CC(C)C)NC(=O)[C@H](Cc1c[nH]c2ccccc12)NC(=O)[C@H](CC(N)=O)NC(=O)[C@@H](NC(=O)[C@H](Cc1ccccc1)NC(=O)[C@H](CCC(=O)O)NC(=O)C(C)(C)NC(=O)[C@H](C)NC(=O)[C@H](C)NC(=O)[C@H](CCC(N)=O)NC(=O)[C@H](CCCCN)NC(=O)[C@H](CC(=O)O)NC(=O)[C@H](CC(C)C)NC(=O)[C@H](Cc1ccc(O)cc1)NC(=O)[C@@H](NC(=O)[C@H](CO)NC(=O)[C@H](Cc1ccc(O)cc1)NC(=O)[C@H](CC(=O)O)NC(=O)[C@H](CO)NC(=O)[C@@H](NC(=O)[C@H](Cc1ccccc1)NC(=O)[C@@H](NC(=O)CNC(=O)[C@H](CCC(=O)O)NC(=O)CSCC(=O)NCCN1C(=O)c2cc3ccccc3cc2C1=O)[C@@H](C)O)[C@@H](C)O)[C@@H](C)CC)C(C)C)C(N)=O)C(=O)O [Compound 249]
- EC50 (GLP-1R; EC50 GLP-1R/nM, Table 3A): 10 to 100 nM
- Emax (GLP-1R; Table 3A): 101%
- EC50 (GIP-R; EC50 GIP-R/nM, Table 3A): 1 to 10 nM
- Emax (GIP-R; Table 3A): 105%

SMILES: CCCCCCCCCCCCCCCC(=O)N[C@@H](CCC(=O)NCCCC[C@H](NC(=O)[C@H](CO)NC(=O)[C@@H]1CCCN1C(=O)[C@@H]1CCCN1C(=O)[C@@H]1CCCN1C(=O)[C@H](C)NC(=O)CNC(=O)[C@H](CO)NC(=O)[C@H](CO)NC(=O)[C@@H]1CCCN1C(=O)CNC(=O)CNC(=O)[C@H](C)NC(=O)[C@H](CC(C)C)NC(=O)[C@H](CC(C)C)NC(=O)[C@H](Cc1c[nH]c2ccccc12)NC(=O)[C@H](CC(N)=O)NC(=O)[C@@H](NC(=O)[C@H](Cc1ccccc1)NC(=O)[C@H](CCC(=O)O)NC(=O)C(C)(C)NC(=O)[C@H](C)NC(=O)[C@H](C)NC(=O)[C@H](CCC(N)=O)NC(=O)[C@H](CCCCN)NC(=O)[C@H](CC(=O)O)NC(=O)[C@H](CC(C)C)NC(=O)[C@H](Cc1ccc(O)cc1)NC(=O)[C@@H](NC(=O)[C@H](CO)NC(=O)[C@H](Cc1ccc(O)cc1)NC(=O)[C@H](CC(=O)O)NC(=O)[C@H](CO)NC(=O)[C@@H](NC(=O)[C@H](Cc1ccccc1)NC(=O)[C@@H](NC(=O)CNC(=O)[C@H](CCC(=O)O)NC(=O)CSCC(=O)NCCN1C(=O)C[C@@H](OC)C1=O)[C@@H](C)O)[C@@H](C)O)[C@@H](C)CC)C(C)C)C(N)=O)C(=O)O [Compound 48]
- EC50 (GLP-1R; EC50 GLP-1R/nM, Table 3): 0.1 to 1 nM
- EC50 (GLP-1R; EC50 GLP-1R/nM, Table 3A): 0.1 to 1 nM
- Emax (GLP-1R; Table 3): 104%
- Emax (GLP-1R; Table 3A): 104%
- EC50 (GIP-R; EC50 GIP-R/nM, Table 3): 0.1 to 1 nM
- EC50 (GIP-R; EC50 GIP-R/nM, Table 3A): 0.1 to 1 nM
- Emax (GIP-R; Table 3): 65%
- Emax (GIP-R; Table 3A): 65%

SMILES: CCCCCCCCCCCCCCCC(=O)N[C@@H](CCC(=O)NCCCC[C@H](NC(=O)[C@H](CO)NC(=O)[C@@H]1CCCN1C(=O)[C@@H]1CCCN1C(=O)[C@@H]1CCCN1C(=O)[C@H](C)NC(=O)CNC(=O)[C@H](CO)NC(=O)[C@H](CO)NC(=O)[C@@H]1CCCN1C(=O)CNC(=O)CNC(=O)[C@H](C)NC(=O)[C@H](CC(C)C)NC(=O)[C@H](CC(C)C)NC(=O)[C@H](Cc1c[nH]c2ccccc12)NC(=O)[C@H](CC(N)=O)NC(=O)[C@@H](NC(=O)[C@H](Cc1ccccc1)NC(=O)[C@H](CCC(=O)O)NC(=O)C(C)(C)NC(=O)[C@H](C)NC(=O)[C@H](C)NC(=O)[C@H](CCC(N)=O)NC(=O)[C@H](CCCCN)NC(=O)[C@H](CC(=O)O)NC(=O)[C@H](CC(C)C)NC(=O)[C@H](Cc1ccc(O)cc1)NC(=O)[C@@H](NC(=O)[C@H](CO)NC(=O)[C@H](Cc1ccc(O)cc1)NC(=O)[C@H](CC(=O)O)NC(=O)[C@H](CO)NC(=O)[C@@H](NC(=O)[C@H](Cc1ccccc1)NC(=O)[C@@H](NC(=O)CNC(=O)[C@H](Cc1cc(O)no1)NC(=O)CSCC(=O)NCCN1CCCCC1=O)[C@@H](C)O)[C@@H](C)O)[C@@H](C)CC)C(C)C)C(N)=O)C(=O)O [Compound 292] (X6-[X9]GTFTSDYSIYLDKQAA[Aib]EFVNWLLAGGPSSGAPPPSK([γGlu-Palmitoyl])-NH2)
- Emax (GLP-1R; Table 3A): 90%
- EC50 (GLP-1R; [1]): 1 to 10 nM
- Emax (GIP-R; Table 3A): 50%
- EC50 (GIP-R; [2]): 10 to 100 nM

SMILES: CC[C@H](C)[C@H](NC(=O)[C@H](CO)NC(=O)[C@H](Cc1ccc(O)cc1)NC(=O)[C@H](CC(=O)O)NC(=O)[C@H](CO)NC(=O)[C@@H](NC(=O)[C@H](Cc1ccccc1)NC(=O)[C@@H](NC(=O)CNC(=O)[C@H](CCC(=O)O)NC(=O)CSCC(=O)NCCN1C(=O)c2ccc([N+](=O)[O-])cc2C1=O)[C@@H](C)O)[C@@H](C)O)C(=O)N[C@@H](Cc1ccc(O)cc1)C(=O)N[C@@H](CC(C)C)C(=O)N[C@@H](CC(=O)O)C(=O)N[C@@H](CCCCN)C(=O)N[C@@H](CCC(N)=O)C(=O)N[C@@H](C)C(=O)N[C@@H](C)C(=O)NC(C)(C)C(=O)N[C@@H](CCC(=O)O)C(=O)N[C@@H](Cc1ccccc1)C(=O)N[C@H](C(=O)N[C@@H](CC(N)=O)C(=O)N[C@@H](Cc1c[nH]c2ccccc12)C(=O)N[C@@H](CC(C)C)C(=O)N[C@@H](CC(C)C)C(=O)N[C@@H](C)C(=O)NCC(=O)NCC(=O)N1CCC[C@H]1C(=O)N[C@@H](CO)C(=O)N[C@@H](CO)C(=O)NCC(=O)N[C@@H](C)C(=O)N1CCC[C@H]1C(=O)N1CCC[C@H]1C(=O)N1CCC[C@H]1C(=O)N[C@@H](CO)C(=O)N[C@@H](CCCCN)C(N)=O)C(C)C [Compound 107]
- EC50 (GLP-1R; EC50 GLP-1R/nM, Table 3): 10 to 100 nM
- EC50 (GLP-1R; EC50 GLP-1R/nM, Table 3A): 10 to 100 nM
- Emax (GLP-1R; Table 3): 57%
- Emax (GLP-1R; Table 3A): 57%
- EC50 (GIP-R; EC50 GIP-R/nM, Table 3): 0.1 to 1 nM
- EC50 (GIP-R; EC50 GIP-R/nM, Table 3A): 0.1 to 1 nM
- Emax (GIP-R; Table 3): 124%
- Emax (GIP-R; Table 3A): 124%
